In this experiment the test system is COR L88 complex tumor spheroid viability. In words: Anticancer human tumor COR L88 cell line growth inhibition.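 On all read-outs here: compound exposure lasted 7 days before viability readout.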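 On viability, T/C: percent of DMSO vehicle-treated spheroids = 100%.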 Particulars: for viability, T/C: stronger effect = lower value. The procedure, abridged:
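Complex tumor spheroids combined malignant cells with endothelial cells and mesenchymal stem cells. DNA-damaging drugs and DNA repair inhibitors were tested alone and in combination, at half-log dilutions down from clinical Cmax (top 10 microM if Cmax unknown), 0.25% DMSO final.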

Setting [1] is: curve of first compound, second compound 0.003 µM.

Several values for one entry are separate records, joined by “and”; a condition that tells them apart may be missing. Equal entries are not always repeated.

Broadly, the viability, T/C is the result in the treated group divided by that in the control group, in per cent. In general, IC50 refers to the concentration that gives 50% inhibition. For the compound `CC1COCCN1c1cc(-c2ccnn2C)c2ccnc(-c3ccn[nH]3)c2n1` (stereo not drawn), the viability, T/C is 94.4% and 93.6% and 97.8% (compound 0.0316 µM); 59.7% and 70.8% and 77% (compound 0.1 µM); 34.2% and 52% and 53.1% (compound 0.316 µM); 22.5% and 30.1% and 36% (compound 1 µM); 9.11% and 13.8% and 14.6% (compound 3.16 µM); 3.91% and 5.8% and 5.02% (compound 10 µM). The concentration for half-maximal inhibition (IC50) (curve of compound) is 0.159 µM and 0.319 µM and 0.403 µM.

On to `COc1ccc([C@@H](O)c2cc(-c3ncnc4cc(N5CCOCC5)ccc34)c(F)cc2Cl)nn1` + COc1cc2c(cc1O)CCNC21CSC2c3c(OC(C)=O)c(C)c4c(c3C(COC1=O)N1C(O)C3Cc5cc(C)c(OC)c(O)c5C(C21)N3C)OCO4, for which the IC50 by setting is: (curve of first compound, second compound 30 pM) 7.58 µM; (curve of first compound, second compound 94.9 pM) above 10 µM; (curve of first compound, second compound 0.0003 µM) 1.15 µM; (curve of first compound, second compound 0.000949 µM) 0.111 µM; under setting [1], below 0.0316 µM. Besides, the viability, T/C is 100% (second compound 30 pM, first compound 0.0316 µM); 115% (second compound 30 pM, first compound 0.1 µM); 93.9% (second compound 30 pM, first compound 0.316 µM); 89.2% (second compound 30 pM, first compound 1 µM); 64.6% (second compound 30 pM, first compound 3.16 µM); 45.3% (second compound 30 pM, first compound 10 µM). For the same compound, the viability, T/C was 104% (second compound 94.9 pM, first compound 0.0316 µM); 108% (second compound 94.9 pM, first compound 0.1 µM); 102% (second compound 94.9 pM, first compound 0.316 µM); 67.8% (second compound 94.9 pM, first compound 1 µM); 57.4% (second compound 94.9 pM, first compound 3.16 µM); 52.2% (second compound 94.9 pM, first compound 10 µM). Besides, the viability, T/C (second compound 0.0003 µM, first compound 0.0316 µM) is 71.4%; the viability, T/C (second compound 0.0003 µM, first compound 0.1 µM) was 63.9%; the viability, T/C (second compound 0.0003 µM, first compound 0.316 µM) is 61.7%; the viability, T/C (second compound 0.0003 µM, first compound 1 µM) is 52.5%; the viability, T/C (second compound 0.0003 µM, first compound 3.16 µM) was 35.8%; the viability, T/C (second compound 0.0003 µM, first compound 10 µM) was 9.95%. The viability, T/C (second compound 0.000949 µM, first compound 0.0316 µM) was 63.2%; the viability, T/C (second compound 0.000949 µM, first compound 0.1 µM) was 51.9%; the viability, T/C (second compound 0.000949 µM, first compound 0.316 µM) is 22.9%; the viability, T/C (second compound 0.000949 µM, first compound 1 µM) is 1.63%; the viability, T/C (second compound 0.000949 µM, first compound 3.16 µM) was 0.6%; the viability, T/C (second compound 0.000949 µM, first compound 10 µM) is 1.43%. For the same compound, the viability, T/C was 0.95% (second compound 0.003 µM, first compound 0.0316 µM); 1.03% (second compound 0.003 µM, first compound 0.1 µM); 1.37% (second compound 0.003 µM, first compound 0.316 µM); 2.44% (second compound 0.003 µM, first compound 1 µM); 2.37% (second compound 0.003 µM, first compound 3.16 µM); 2.01% (second compound 0.003 µM, first compound 10 µM).

As for `Cn1nnc2c(C(N)=O)ncn2c1=O`, the viability, T/C by setting is: (compound 1 µM) 96.2% [middle of 10 runs]; (compound 3.16 µM) 96.8% [middle of 10 runs]; (compound 10 µM) 95% [middle of 10 runs]; (compound 31.6 µM) 84.1% [middle of 10 runs]; (compound 100 µM) 70.6% [middle of 10 runs]. Besides, the IC50 (compound alone, run of 10/17/2019) was above 100 µM.

Take `O=C(c1cc(Cc2n[nH]c(=O)c3ccccc23)ccc1F)N1CCN(C(=O)C2CC2)CC1` + CC[C@@]1(O)C(=O)OCc2c1cc1n(c2=O)Cc2cc3c(CN(C)C)c(O)ccc3nc2-1: the half-maximal inhibitory concentration (IC50) was 9.73 µM under setting [1]; 9.85 µM (curve of first compound, second compound 0.00949 µM); 0.282 µM (curve of first compound, second compound 0.03 µM); below 0.0949 µM (curve of first compound, second compound 0.0949 µM); below 0.0949 µM (curve of first compound, second compound 0.3 µM). Besides, the viability, T/C reads like this: (second compound 0.003 µM, first compound 0.0949 µM) 89%; (second compound 0.003 µM, first compound 0.3 µM) 85.6%; (second compound 0.003 µM, first compound 0.949 µM) 85.3%; (second compound 0.003 µM, first compound 3 µM) 66%; (second compound 0.003 µM, first compound 9.49 µM) 51.3%; (second compound 0.003 µM, first compound 30 µM) 45.6%. Further, the viability, T/C was 62.3% (second compound 0.00949 µM, first compound 0.0949 µM); 56.2% (second compound 0.00949 µM, first compound 0.3 µM); 57.3% (second compound 0.00949 µM, first compound 0.949 µM); 57.5% (second compound 0.00949 µM, first compound 3 µM); 47.3% (second compound 0.00949 µM, first compound 9.49 µM); 45.8% (second compound 0.00949 µM, first compound 30 µM). Further, the viability, T/C reads like this: (second compound 0.03 µM, first compound 0.0949 µM) 51.3%; (second compound 0.03 µM, first compound 0.3 µM) 50.1%; (second compound 0.03 µM, first compound 0.949 µM) 48.3%; (second compound 0.03 µM, first compound 3 µM) 48%; (second compound 0.03 µM, first compound 9.49 µM) 45.9%; (second compound 0.03 µM, first compound 30 µM) 45.8%. The viability, T/C is, setting by setting: (second compound 0.0949 µM, first compound 0.0949 µM) 45.7%; (second compound 0.0949 µM, first compound 0.3 µM) 44%; (second compound 0.0949 µM, first compound 0.949 µM) 44.3%; (second compound 0.0949 µM, first compound 3 µM) 41.9%; (second compound 0.0949 µM, first compound 9.49 µM) 40.3%; (second compound 0.0949 µM, first compound 30 µM) 33%. Moreover, the viability, T/C is, setting by setting: (second compound 0.3 µM, first compound 0.0949 µM) 41.4%; (second compound 0.3 µM, first compound 0.3 µM) 41%; (second compound 0.3 µM, first compound 0.949 µM) 39%; (second compound 0.3 µM, first compound 3 µM) 32.6%; (second compound 0.3 µM, first compound 9.49 µM) 24.4%; (second compound 0.3 µM, first compound 30 µM) 18.5%.

The values above are taken from PubChem BioAssay AID1845201 (Molecular Pharmacology Branch, DTP, NCI, 2023).
